The source of these data is publication PMC10033538, “Analysis of 2′-hydroxyflavanone (2HF) in mouse whole blood by HPLC–MS/MS for the determination of pharmacokinetic parameters” (Frontiers in Chemistry, 2023).

The nature of series [1]: Oral pharmacokinetic study of 2HF in BALB/c mouse blood (HPLC-MS/MS, non-compartmental analysis). The series is classed as in vivo. As to conditions: BALB/c mice, single oral dose 10 mg/kg, whole blood. The method, then: BALB/c mice, with six mice per group, received a single dose of 10 mg/kg 2HF that was solubilized in DMSO (2%) and suspended in Ora-plus® (Perrigo, Minneapolis, MN, United States). ORA-Plus is an aqueous-based vehicle consisting of suspending agents that have a high degree of colloidal activity, facilitating the process involved in the extemporaneous compounding of oral suspensions. Ora-Plus contains purified water, microcrystalline cellulose, sodium carboxymethylcellulose, xanthan gum, and carrageenan as suspending agents; calcium sulfate, sodium phosphate, and citric acid as buffering agents; simethicone as an antifoaming agent; and potassium sorbate and methylparaben as preservatives, as described in the datasheet. The doses were administered orally using a gavage needle.
Mouse blood (300 µL) was collected via the orbital plexus, one mouse per time, with six replicates (6 mice per time interval). For anesthesia, an ophthalmic solution of tetracaine hydrochloride (1%) and phenylephrine hydrochloride (0,1%) was used, and one drop was administered in the chosen orbital 5 min before collection. The collection was performed with […] Pasteur pipettes that were previously autoclaved, and blood was transferred to 1.5 mL microtubes that were also heparinized. The time intervals determined were 2.5, 5, 7.5, 10, 15, 30, 45, 60, 90, 120, and 240 min after administration of the compound. After collecting all samples, 2HF was extracted as described above.
The pharmacokinetic parameters were obtained by non-compartmental analysis (NCA) using the Phoenix WinNonlin® 8.1 program (CERTARA). The maximum blood peak concentration (Cmax) and time to peak concentration (Tmax) were obtained directly from the blood concentration-time profiles. The area under the concentration-time curve from time zero to time t (AUC0–t) was obtained using the trapezoidal method. The area under the total blood concentration-time curve from time zero to infinity (AUC0–∞) was calculated using Eq. 4 as follows: AUC0–∞=AUC0–t+Clast÷kel (4) where Clast is the concentration observed at the last time, and kel is the apparent elimination rate constant obtained from the terminal slope of the blood concentration-time curve after logarithmic transformation of the blood concentrations and application of linear regression.
The blood elimination half-life (t1/2) was calculated using Eq. 5 as follows: t1/2=ln2÷kel (5)
Apparent oral clearance (CL/F) and apparent volume of distribution (Vd/F) parameters were obtained from the blood concentrations and expressed normalized to bioavailability (F) because only oral data are available.

The subject of series [2] is Leishmania amazonensis. Details: method as in Gervazoni et al., 2018. As to conditions: in vitro; ref Gervazoni et al., 2018; cited from earlier work.
For another series, the system named is tumor growth. Details: method as in earlier work. As to conditions: single oral doses of 100 mg/kg/day or 25, 50 and 100 mg/kg every other day, ref Yue et al., 2020, Nagaprashantha et al., 2011, Singhal et al., 2018a, 2018b; cited from earlier work.
Series [3] concerns Leishmania amazonensis. As to conditions: ref Gervazoni et al., cited from earlier work; for In vivo effects in cutaneous leishmaniasis model: single oral dose/day, 2020.
Series [4] can be described thus: Stability of 2HF in mouse blood (short-term, postpreparative, freeze-thaw, long-term). Type of series: in vitro ADME, BALB/c mouse. As to conditions: for Deviation, short term stability / Mean concentration, short term stability: +22.0 °C; for Deviation, short term stability / Mean concentration, short term stability / Deviation, freeze-thaw stability / Mean concentration, freeze-thaw stability / Deviation, long-term stability / Mean concentration, long-term stability / Deviation, postpreparative stability / Mean concentration, postpreparative stability: n = 8; for Deviation, freeze-thaw stability / Mean concentration, freeze-thaw stability / Deviation, long-term stability / Mean concentration, long-term stability: −70.0 °C; for Deviation, freeze-thaw stability / Mean concentration, freeze-thaw stability: 6 cycles; for Deviation, postpreparative stability / Mean concentration, postpreparative stability: processed mouse blood sample, +10.0 °C. The method, then:
Stability studies were initiated and completed before analyzing the studied samples. The stability in the biological matrix was evaluated through freezing and thawing cycles, short-term and long-term stability, and postpreparative. All tests were performed with eight replicates for each sample concentration level. To carry out the stability tests, an initial quantification test (TQI) was performed in accordance with local regulatory norms that aim to guarantee good practices through quality standards. In this test, samples of LQC […] and HQC […] were analyzed, in which the concentration was determined by utilizing a freshly prepared calibration curve. The number of replicates that were analyzed in each control was the same as that used in the stability tests. Freeze–thaw cycle temperatures are presented in Supplementary Table S4.
The stability of 2HF in BALB/c mouse blood was evaluated using short-term tests at 22 °C, postprocessing stability at +10 °C, stability in freeze–thaw cycles (n = 06 cycles) and long-term stability with the samples stored at −70 °C. In these assays, the quality controls of low and high concentrations, LQC: 3.00 ng/mL and HQC: 200.00 ng/mL, were used.

The conditions of series [5]: rat plasma, cited from earlier work.
The conditions of series [6]: ref Gervazoni et al., 2020; cited from earlier work.
On the set-up of series [7]: method as in Teng et al., 2012. As to conditions: ref Teng et al., 2012; cited from earlier work.
For series [8] the following is noted: orally administered to rats; ref Yang et al., 2019a; cited from earlier work.
Details of series [9]: method as in Yang et al., 2019b. As to conditions: rats, 10 mg/kg oral dose; ref Yang et al., 2019b; cited from earlier work.
Where [10] appears, read: sensitive and cutaneous murine model, 2018.
Setting [11] is: mouse blood, HQC nominal 200.00 ng/mL.
Where [12] appears, read: mouse blood, LQC nominal 3.00 ng/mL.
The mark [13] stands for this setting: oral single dose 100 mg/kg, ref Zhao et al., 2020.

Where two headings read alike, the source gives them in different places.

In the case of `O=C1CC(c2ccccc2O)Oc2ccccc21` (centres unmarked) [2HF, 2′-Hydroxyflavanone], in series [1], the AUC0-inf is reported as 5,524.54 min x ng/mL; the AUC % extrap came out at 7.30%; the “Cl/F, total blood clearance” value amounted to 18.10 mL/min; the “Tmax, time to reach Cmax” value is 5 min. The AUC0-t in series [1] (trapezoidal method) is 5,120.98 min x ng/mL. Also, the k el in [1] (mouse, NCA, read-out: Kel, elimination rate constant (converted)) was 0.000118 s⁻¹. The half-life in series [1] (mouse, NCA, read-out: T1/2, elimination half-time) was 1.63 h. For the same compound, the Cmax in series [1] (mouse, read-out: Cmax, maximum concentration) came out at 186 ng/mL. The Vd/F in series [1] (mouse, read-out: Vd/F, volume of distribution) came to 2.55 L. Moreover, the “Inhibition of promastigote and amastigote forms” value with Leishmania amazonensis [2] is “inhibit both the promastigote and amastigote forms”. Also, the Tumor growth entry with tumor growth is listed as “inhibited different types of tumor growth”. Besides, the “In vivo activity in experimental model of cutaneous leishmaniasis” value in the series on Leishmania amazonensis [3] (daily doses of 50 mg/kg for 35 days, 2018) is “significant effect”. For the same compound, in the series on Leishmania amazonensis [3] (setting [10]), the Lesion size result was “decrease the lesion size” and the Parasitic load entry was “almost cease the parasitic load”. For the same compound, in series [4] (biological matrix, freezing and thawing, short duration, postprocessing and long duration), the “Deviations in stability tests” value is on record as “less than 15%”. Besides, in series [4] (setting [11]), the “Deviation, short term stability” value was found to be 7.53%; the “Mean concentration, short term stability” value was found to be 215.06 ng/mL; the “Deviation, freeze-thaw stability” value came to 4.68%; the “Mean concentration, freeze-thaw stability” value is 209.37 ng/mL. For the same compound, in series [4] (setting [11]), the “Deviation, long-term stability” value is recorded as 5.42% and the “Mean concentration, long-term stability” value was 210.83 ng/mL. In [4] (setting [12]), the “Deviation, short term stability” value worked out at 4.59%; the “Mean concentration, short term stability” value is 3.14 ng/mL; the “Deviation, freeze-thaw stability” value came out at 1.61%; the “Mean concentration, freeze-thaw stability” value came out at 3.05 ng/mL. In addition, in series [4] (setting [12]), the “Deviation, long-term stability” value is reported as −1.33% and the “Mean concentration, long-term stability” value is recorded as 2.96 ng/mL. Further, the “Degradation in the biological matrix” value in series [4] (mouse blood, all stability tests performed) is “no significant degradation”. Also, in series [4] (HQC nominal 200.00 ng/mL), the “Deviation, postpreparative stability” value is given as 11.08% and the “Mean concentration, postpreparative stability” value was determined as 222.16 ng/mL. Also, in series [4] (LQC nominal 3.00 ng/mL), the “Deviation, postpreparative stability” value is on record as 10.11% and the “Mean concentration, postpreparative stability” value is on record as 3.30 ng/mL.

Consider `COc1cc(O)cc(O)c1C(=O)/C=C/c1ccccc1` [Cardamonin], for which, in [5] (oral single dose 5 mg/kg, ref Jaiswal et al., 2017), the Tmax is recorded as 0.50 h.

As for `O=C(CCc1ccc(O)cc1)c1c(O)cc(O)cc1O` [Phloretin], in series [5] (setting [13]), the T1/2 is 2.83 h and the Tmax is 1.25 h.

For the compound `O=c1cc(-c2ccc(O)cc2)oc2cc(O)cc(O)c12` [apigenin], the “In vivo effects in cutaneous leishmaniasis model” value in the series with Leishmania amazonensis [3] is on record as “promising in vivo effects”. The T1/2 result in [6] was “less than 192 min”. Besides, in series [7], the Cmax is on record as 42 ng/mL, the T1/2 is 2.11 h and the Tmax is reported as 0.50 h.

With `O=C1c2c(O)cc(O)cc2O[C@H](c2cc(O)c(O)c(O)c2)[C@H]1O` [dihydromyricetin], in series [8], the T1/2 was 3.04 h and the Tmax is on record as 0.57 h.

Turning to `O=C1c2c(O)cc(O)cc2O[C@H](c2ccc(O)c(O)c2)[C@H]1O` [dihydroquercetin], in series [8], the T1/2 is recorded as 2.32 h and the Tmax is recorded as 0.28 h.

Take `COc1cc(O)c(C(=O)/C=C/c2ccccc2)c(OC)c1` [flavokavain B]: in series [9], the Cmax is listed as 265.2 ng/mL, the T1/2 is 2.76 h and the “Time of Cmax” value is 1 h.

Turning to `O=c1c(O)c(-c2cc(O)c(O)c(O)c2)oc2cc(O)cc(O)c12` [myricetin], in [8], the T1/2 was 2.46 h and the Tmax is on record as 0.22 h.

With `O=c1c(O)c(-c2ccc(O)c(O)c2)oc2cc(O)cc(O)c12` [quercetin], in series [8], the T1/2 was 3.00 h and the Tmax is recorded as 0.25 h. Also, the “In vivo effects in cutaneous leishmaniasis model” value in the series on Leishmania amazonensis [3] is given as “promising in vivo effects”. In addition, the T1/2 result in series [6] is on record as “less than 192 min”.

For orientation: Tmax means the time from dosing to the highest level.
